From US12116362B2, “Monocyclic compounds useful as GPR120 modulators” (Valo Health, Inc., priority 2016, dated 2024)

Target: T1, human GPR120 (Homo sapiens, UniProt Q5NUL3)
T1 construct: host or cells: CHO-K1
Assay: GPR120 β-Arrestin Recruitment Assay (PathHunter, CHO-K1 cells)
Format: cell-based
Settings: CHO-K1; @ 10 uM; read-out: percent activation at a single concentration (printed in the β-Arr pEC50 column)
Excerpt: This in vitro assay tests compounds' ability to activate intracellular signaling via 3-Arrestin recruitment to heterologously expressed human GPR120. This functional cellular assay utilizes enzyme fragment complementation with β-galactosidlase (β-gal) as a functional reporter (DiscoveRx PathlHunter® β-Arrestin assay platform). The human (GPR120 receptor (GenBank accession Number NM_181745) was fused in frame with the small enzyme fragment ProLink™ and co-expressed in CHO-K1 cells with a fusion protein of β-Arrestin 2 and the larger, N-terminal deletion mutant of β-gal. Activation by a GPR120 agonist stimulates binding of β-arrestin to the ProLink-tagged GPCR and forces complementation of the two enzyme fragments, resulting in the formation of an active β-gal enzyme. This interaction leads to an increase in enzyme activity that can be measured using chemiluminescent PathHunter® Detection Reagents.
One day prior to the assay, cells were seeded in a total volume of 20 μl of growth medium into white walled 384-well microplates and incubated at 37° C./5% CO2 overnight. On the day of the assay, growth medium was removed and 20 μl assay buffer (HBSS+10 mM HEPES+0.1% heat-inactivated BSA) were added to each well.
Test compounds were dissolved in 100% DMSO to a concentration of 10 mM to provide stock solutions. Serial dilutions were performed from stock solutions into assay buffer to obtain intermediate concentrations of 5-fold higher than the concentrations to be tested. 5 μl of the 5× compound solutions were added to the cells and the assay plates were incubated at 37° C. for 90 minutes. The final concentration of compounds tested in the assay ranged from 1.5 nM to 100 μM. Following incubation, 12.5 μl of PathHunter® detection reagent were added to each well, and plates were incubated at room temperature for 60 minutes. Chemiluminescence was read using an EnVision plate reader (PerkinElmer), raw data were expressed as relative light units (RLU).
To determine agonist potencies (EC50 values), non-linear least-squares curve fits of the raw data (RLU) were performed in the GraphPad Prism software package, using the 4-parameter model with variable Hill Slope:
Reported below in Table 1 are pEC50 values (pEC50=−log(EC50) from curve fit) for compounds of Formula I in this assay, β-Arr pEC50 Alternatively, percent activation at a single concentration is reported.

T1 sequence (Q5NUL3 1-377 isoform Q5NUL3-1): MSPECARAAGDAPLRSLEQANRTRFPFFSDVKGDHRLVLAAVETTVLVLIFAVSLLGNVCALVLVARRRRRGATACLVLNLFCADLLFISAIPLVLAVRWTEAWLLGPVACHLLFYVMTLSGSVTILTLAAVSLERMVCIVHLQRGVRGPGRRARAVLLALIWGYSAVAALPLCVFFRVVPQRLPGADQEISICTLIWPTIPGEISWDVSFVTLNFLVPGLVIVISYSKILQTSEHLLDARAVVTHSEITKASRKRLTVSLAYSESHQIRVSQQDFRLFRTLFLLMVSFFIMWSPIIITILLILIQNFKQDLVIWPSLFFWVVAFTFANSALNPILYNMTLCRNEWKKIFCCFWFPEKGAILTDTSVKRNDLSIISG
T1 sequence (P32121 whole entry partner): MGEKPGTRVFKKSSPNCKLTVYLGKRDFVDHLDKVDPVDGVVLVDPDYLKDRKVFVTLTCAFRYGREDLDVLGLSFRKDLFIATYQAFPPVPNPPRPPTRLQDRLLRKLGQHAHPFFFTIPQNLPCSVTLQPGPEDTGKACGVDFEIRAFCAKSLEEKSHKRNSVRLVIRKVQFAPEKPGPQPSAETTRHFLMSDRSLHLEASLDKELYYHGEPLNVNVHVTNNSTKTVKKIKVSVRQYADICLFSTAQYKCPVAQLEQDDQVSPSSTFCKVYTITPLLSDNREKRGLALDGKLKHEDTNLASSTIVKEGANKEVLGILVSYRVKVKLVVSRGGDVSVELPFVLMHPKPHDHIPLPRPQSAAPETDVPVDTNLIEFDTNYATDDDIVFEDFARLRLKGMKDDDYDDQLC

SMILES | activation at 10 µM
Cc1ncccc1Oc1nccc(N2Cc3ccccc3S2(=O)=O)n1 [Compound 17] | 4%
c1cncc(Oc2ccnc(N3Cc4ccccc4C3)n2)c1 [Compound 14] | 8%
O=S1(=O)c2ccccc2CN1c1ccnc(OCc2cccnc2)n1 [Compound 71] | 1%
CC(=O)Nc1cccc(Oc2nccc(N3Cc4ccccc4S3(=O)=O)n2)c1 [Compound 24] | 1%
CC1(C)c2ccccc2CN1c1ccnc(Oc2cccnc2)n1 [Compound 2] | 18%
O=S1(=O)c2ccccc2CN1c1ccnc(Oc2cncnc2)n1 [Compound 25] | 16%
O=S1(=O)c2ccccc2CN1c1ccnc(-n2cnc3ccccc32)n1 [Compound 31] | 11%
O=S1(=O)c2ccccc2CN1c1ccnc(-n2ccc3ccncc32)n1 [Compound 30] | 17%
O=S1(=O)c2ccccc2CN1c1ccnc(Oc2ccnc3ccccc23)n1 [Compound 27] | 9%

Same assay, conditions: pEC50=−log(EC50) from curve fit; CHO-K1 cells, 90 min incubation

SMILES | β-Arr pEC50
Cc1nc(Oc2ccc(Cl)cc2)nc(N2Cc3ccccc3S2(=O)=O)n1 [Compound 143] | <4.5

Same assay, conditions: pEC50=−log(EC50) from curve fit; CHO-K1 cells, 90 min incubation; read-out: β-Arr pEC50 (converted)

SMILES | EC50
Cc1cc(Oc2ccccc2)nc(N2Cc3ccccc3S2(=O)=O)n1 [Compound 105] | 2.51 µM
CS(=O)(=O)N1CC(Oc2nccc(N3Cc4ccccc4S3(=O)=O)n2)C1 [Compound 109] | > 31.6 µM
CC(=O)N1CCCC(Oc2nccc(N3Cc4ccccc4S3(=O)=O)n2)C1 (centres unmarked) [Compound 66] | > 10 µM
CC(C)c1cc(N2Cc3ccccc3S2(=O)=O)nc(Oc2cccnc2)n1 [Compound 84] | > 10 µM
CNC(=O)c1cc(N2Cc3ccccc3S2(=O)=O)nc(Oc2cccnc2)n1 [Compound 88] | > 10 µM
O=C1c2cccc(Br)c2CN1c1ccnc(Oc2cccnc2)n1 [Compound 113] | 12.6 µM
CN(C)C(=O)c1cc(Oc2ccc(Cl)cc2)nc(N2Cc3ccccc3S2(=O)=O)c1 [Compound 139] | > 10 µM
O=S1(=O)c2ccccc2CN1c1cc(C(F)(F)F)nc(Oc2ccc(F)cc2)n1 [Compound 103] | 2 µM
O=S1(=O)c2ccccc2CN1c1cc(C(F)(F)F)cc(Oc2cccnc2)n1 [Compound 140] | 1 µM
CC(=O)N1CCC(Oc2nccc(N3Cc4ccccc4S3(=O)=O)n2)C1 (centres unmarked) [Compound 112] | > 31.6 µM
Cc1cc(Oc2cccnc2)nc(N2Cc3ccccc3S2(=O)=O)c1 [Compound 136] | 0.631 µM
Cc1cc(N2Cc3ccccc3S2(=O)=O)nc(OC2CC(F)(F)C2)n1 [Compound 91] | 3.98 µM
O=S1(=O)c2ccccc2CN1c1ccnc(Oc2ccc(Oc3ccccc3)cc2)n1 [Compound 43] | > 31.6 µM
COc1ccc2c(c1)S(=O)(=O)N(c1cccc(Oc3cccnc3)n1)C2 [Compound 132] | > 31.6 µM
O=S1(=O)c2ccccc2CN1c1cc(C(F)(F)F)cc(OC2CC(F)(F)C2)n1 [Compound 141] | 6.31 µM
Cc1cc(Oc2cccnc2)nc(N2Cc3ccccc3S2(=O)=O)n1 [Compound 115] | 6.31 µM
COc1cc(N2Cc3ccccc3S2(=O)=O)nc(Oc2ccc(Cl)cc2)n1 [Compound 95] | 0.398 µM
COc1ccc2c(c1)CN(c1cccc(Oc3cccnc3)n1)S2(=O)=O [Compound 133] | > 31.6 µM
O=S1(=O)c2ccccc2CN1c1ccnc(Oc2cncc(Br)c2)n1 [Compound 52] | 12.6 µM
O=C(COc1nccc(N2Cc3ccccc3S2(=O)=O)n1)Nc1ccccc1 [Compound 76] | > 31.6 µM
O=S1(=O)c2ccccc2CN1c1ccnc(OC2CC(F)(F)C2)n1 [Compound 7] | 12.6 µM
O=S1(=O)c2ccccc2CN1c1ccnc(Oc2ccc(OC(F)(F)F)cc2)n1 [Compound 49] | 2.51 µM
O=S1(=O)c2ccccc2CN1c1ncnc(Oc2cccnc2)n1 [Compound 146] | 15.8 µM

SMILES | EC50
O=S1(=O)c2ccccc2CN1c1nccc(OC2CC(F)(F)C2)n1 [Compound 94] | > 10 µM
O=S1(=O)c2ccccc2CN1c1ccnc(OC2CCOCC2)n1 [Compound 64] | > 10 µM
Cc1cc(C)c(Oc2nccc(N3Cc4ccccc4S3(=O)=O)n2)cn1 [Compound 53] | > 10 µM
COc1ccc2c(c1Cl)S(=O)(=O)N(c1ccnc(Oc3cccnc3)n1)C2 [Compound 5] | > 10 µM
CC(=O)Nc1cc(Oc2ccc(Cl)cc2)nc(N2Cc3ccccc3S2(=O)=O)c1 [Compound 138] | 3.16 µM
O=C1c2ccccc2CN1c1nccc(Oc2cccnc2)n1 [Compound 117] | > 10 µM
O=S1(=O)c2ccccc2CN1c1ccnc(Oc2ccc(C(F)(F)F)cc2)n1 [Compound 47] | 6.31 µM
Cc1cc(Oc2ccc(F)cc2)nc(N2Cc3ccccc3S2(=O)=O)n1 [Compound 104] | 3.98 µM
Cc1nc(Oc2ccc(Cl)cc2)nc(N2Cc3ccccc3S2(=O)=O)n1 [Compound 144] | 2 µM
N#Cc1ccc(Oc2nccc(N3Cc4ccccc4S3(=O)=O)n2)cc1 [Compound 40] | > 10 µM
O=S1(=O)c2ccccc2CN1c1cccc(OC2CCC2)n1 [Compound 126] | > 31.6 µM
Cc1ccc(Oc2nccc(N3Cc4ccccc4S3(=O)=O)n2)cn1 [Compound 18] | > 10 µM
O=S1(=O)c2ccccc2CN1c1ccnc(OCC2CCC2)n1 [Compound 69] | 3.98 µM
O=C1c2ccccc2CN1c1cccc(Oc2cccc(Cl)c2)n1 [Compound 130] | > 31.6 µM
COc1cccc(Oc2nccc(N3Cc4ccccc4S3(=O)=O)n2)c1 [Compound 39] | > 10 µM
O=C1c2ncccc2CN1c1cccc(Oc2cccnc2)n1 [Compound 127] | > 31.6 µM
CC1(C)c2ccccc2S(=O)(=O)N1c1ccnc(Oc2cccnc2)n1 [Compound 6] | > 10 µM
O=C1c2cccnc2CN1c1ccnc(Oc2cccnc2)n1 [Compound 9] | > 31.6 µM
COc1ccc2c(c1)CN(c1ccnc(Oc3cccnc3)n1)C2=O [Compound 12] | > 31.6 µM
O=S1(=O)c2ccccc2CN1c1ccnc(OC2CCOC2)n1 (centres unmarked) [Compound 65] | > 10 µM
N#Cc1cc(N2Cc3ccccc3S2(=O)=O)nc(Oc2cccnc2)n1 [Compound 81] | 6.31 µM
O=S1(=O)c2ccccc2CN1c1ccnc(OCc2ccccc2)n1 [Compound 70] | 15.8 µM
COc1ccc2c(c1)C(=O)N(c1ccnc(Oc3cccnc3)n1)C2 [Compound 11] | > 10 µM

SMILES | EC50
O=C1c2ncccc2CN1c1ccnc(Oc2cccnc2)n1 [Compound 10] | > 31.6 µM
CN1CCC(Oc2nccc(N3Cc4ccccc4S3(=O)=O)n2)CC1 [Compound 74] | > 31.6 µM
O=S1(=O)c2ccccc2CN1c1ccnc(-n2ccc3ccccc32)n1 [Compound 29] | 15.8 µM
CC1c2ccccc2S(=O)(=O)N1c1ccnc(Oc2cccnc2)n1 (centres unmarked) [Compound 8] | 12.6 µM
O=S1(=O)c2ccccc2CN1c1ccnc(OCc2ccncc2)n1 [Compound 73] | > 10 µM
O=S1(=O)c2ccccc2CN1c1ccnc(OC2CCNCC2)n1 [Compound 62] | > 10 µM
COc1cc(Oc2ccccc2)nc(N2Cc3ccccc3S2(=O)=O)n1 [Compound 102] | 0.794 µM
O=S1(=O)c2ccccc2CN1c1ccnc(Oc2cc(Cl)cc(Cl)c2)n1 [Compound 38] | 15.8 µM
N#Cc1ccc(Oc2nccc(N3Cc4ccccc4S3(=O)=O)n2)cn1 [Compound 55] | > 10 µM
O=S1(=O)c2ccccc2CN1c1ccnc(Oc2cnc3ccccc3c2)n1 [Compound 26] | 12.6 µM
Cc1cc(Cl)cc(Oc2nccc(N3Cc4ccccc4S3(=O)=O)n2)c1 [Compound 46] | 5.01 µM
O=S1(=O)c2cccc(Cl)c2CN1c1ccnc(Oc2cccnc2)n1 [Compound 3] | > 31.6 µM
O=S1(=O)c2ccccc2CN1c1ccnc(Oc2ccc(Cl)nc2)n1 [Compound 54] | > 10 µM
O=C1c2ccccc2CN1c1ccnc(Oc2cccnc2)n1 [Compound 28] | 12.6 µM
COc1ccc(-c2cc(N3Cc4ccccc4S3(=O)=O)nc(Oc3cccnc3)n2)cc1 [Compound 85] | > 31.6 µM
Cc1cc(OC2CC(F)(F)C2)nc(N2Cc3ccccc3S2(=O)=O)n1 [Compound 92] | 3.16 µM
Cc1cc(Oc2cccnc2)nc(N2Cc3cccnc3C2=O)c1 [Compound 135] | > 10 µM
CC(=O)N1CC(Oc2nccc(N3Cc4ccccc4S3(=O)=O)n2)C1 [Compound 110] | > 31.6 µM
O=S1(=O)c2ccccc2CN1c1ccnc(OCC2CCCCC2)n1 [Compound 68] | 2.51 µM
O=S1(=O)c2ccccc2CN1c1ccnc(Oc2ccc(OC(F)(F)F)cc2Cl)n1 [Compound 57] | 1 µM
O=C1Cc2ccccc2N1c1nccc(Oc2cccnc2)n1 [Compound 120] | > 31.6 µM
